Where “and” joins values, the source holds several entries; their conditions need not be identical. Equal values may be shown once.
What was measured:
cercariae of S. mansoni [1] = assay: Effect of DEET on the morphology of cercariae (transmission electron microscopy); assay type: cell-based, Schistosoma mansoni
Description: Effect of DEET on cercarial morphology was evaluated by transmission electron microscopic studies. In these experiments, approximately 300-500 cercariae of S. mansoni suspended in 100 μl of PBS were placed in each well of a 96 well plate coated with varying concentrations of DEET (ranging from 7.5%-40%) or isopropanol (control) as described above. Samples were collected at 5, 10, 20, 30 and 240 minutes after exposure to DEET and processed for transmission electron microscopy as described in Salafsky et al., Exper. Parasitol., 67:116-127 (1988). Briefly, cercariae collected from each tube were transferred to fresh tubes containing PBS plus 10% fetal bovine serum (Sigma Chemical Co.) and concentrated into a pellet by centrifugation at 500 rpm (300 g) for 5 minutes. The pellet was then fixed overnight at 4° C. in a fixative containing 3% gluteraldehyde, and 1% formaldehyde in a 0.1 M phosphate buffer (pH 7.2). After one hour post fixation in 1% osmium tetroxide the pellet were dehydrated through a graded acetone series and embedded in epon resin. Sections were examined in a Hitachi H-500 transmission electron microscope after staining with uranyl acetate and lead citrate.

cercariae of S. mansoni [2] = assay: Cercarial penetration through mouse skin and worm establishment, application before infection (compressed organ autoradiography); assay type: in vivo, Schistosoma mansoni; conditions: for protection against schistosomiasis: 10% DEET
Source text: For in vivo animal experiments, male mice of the CD1 strain, weighing approximately 18-20 grams, purchased from Charles River Laboratories (Wilmington, Mass.) were used. The use of animals in these experiments were in compliance with the Animal Welfare Act and other Federal statues and regulations relating to animals as stated in the National Institute of Health publication: Guide for the Care and Use of Laboratory Animals. Mice were infected individually with schistosome cercariae via either tail skin or via shaved abdominal skin. For infection via tail skin, the mouse was restrained in a cage and the tail was dipped for 60 minutes in a tube containing 250-300 ^35S-labeled cercariae suspended in 10 ml of distilled water at room temperature. For infection via abdominal skin, the mouse was restrained on its back. After shaving the abdominal skin, 150-200 ^35S-labeled cercariae were applied to the skin in a drop of distilled water, covered with a cover slip and exposed for 30 minutes.
To determine skin penetration and worm establishment, whole tail skin or the area of abdominal skin that was exposed to the cercariae as described above and the lungs were removed from each mouse on day seven after infection and processed for compressed organ autoradiography techniques as described previously (Li J W et al., Parasitology International 46: 55-65 (1997)). Briefly, the skin and lungs were mounted on a cardboard sheet, covered with plastic wrap and kept under a tissue press for 48 hrs at room temperature. The pressed and dried tissue was then exposed to X-ray film (Fuji RX, Fisher Scientific, Pittsburgh, Pa.) at −70° C. for 7-9 days. Following autoradiographic development, the dark spots (which represent reduced silver foci on film) were counted and percent worm establishment was calculated (number of spots/total number of cercariae used for infection X 100).
For application of DEET to the tail skin, mice were individually kept in restraining cages and their tail was dipped in 7.5% DEET solution (prepared in isopropanol) for 5 min. Following application the skin was air dried for 30 min, and rinsed in distilled water for 1 min before exposure to radio-labeled cercariae of S. mansoni as mentioned in Example 3.
For application of DEET to the abdominal skin, mice were restrained to the back and their abdomen shaved. 200 μl of an appropriate concentration of DEET in isopropanol solution was dropped on to the abdomen and allowed to dry for 15 min. After drying, the skin was washed for 1 min with distilled water and exposed to radio-labeled cercariae for 30 min.
Experiments were also conducted to see how long the cercaricidal activity of DEET remained in the skin after a single application. In these experiments 10% DEET was applied to the shaved abdominal skin of mice and was allowed to dry. Thirty minutes after DEET application, the area of skin was washed continuously for one minute with running distilled water. At different time points (30 min, 1 hr, 4 hrs, and 24 hrs) after DEET application, mice were infected with radio-labeled cercariae (as described in Example 2) and worm establishment was determined by compressed organ autoradiography (as described in Example 3).

cercariae of S. mansoni [3] = assay: Wash-off tests with DEET and Lipodeet in schistosomiasis (mice); assay type: in vivo, Schistosoma mansoni
Description: After bathing, mice were allowed to dry completely. The abdominal skin of these mice was then exposed to 150 cercariae of S. mansoni labeled with ^35S-methionine. Degree of protection conferred by Lipodeet and DEET after the wash off treatment was evaluated by monitoring the entry of parasites into the skin by compressed organ autoradiography techniques as described earlier (Li et. al. Parasitology International 46:55-65, 1997).

[4] = Disposition of 14C-DEET and 14C-Lipodeet after skin application (skin, blood, urine, bedding radioactivity)
Description: In this series of experiments, 11.472 mg of ^14C-DEET of ^14C-Lipodeet (in 100 μl) was applied to 5 cm^2 area of the mice abdominal skin. At different time points (15 min, 30 min, 60 min, 2 hrs., 4 hrs., 24 hrs., 48 hrs. and 72 hrs.) after application, the whole area of skin where the lipodeet had been applied was collected, underlying tissue removed and the radioactivity measured in a Beckman β-counter. Samples of blood and urine were also collected at these time points from each mouse to measure the radioactivity (n=10 for each time point). […] In this study, we made observations only up to 72 hrs. […] There are two possibilities, (1) substantial quantities of both DEET and Lipodeet are absorbed systemically through the skin within 24 hrs., or (2) both the chemicals are lost in the bedding due to direct contact of the applied area to the bedding materials. The first hypothesis was tested by measuring ^14C levels in the blood and urine in these animals.

insects = conditions: normally; cited from earlier work
[5] = 7.5% DEET applied to skin before infection, mice, day 7, n = 10

For `CCN(CC)C(=O)c1cccc(C)c1` [DEET, N,N-diethyl-m-toluamide], which “ultrastructural changes of cercariae” value (cercariae of S. mansoni [1]; 7.5% DEET, evident as early as five minutes post-exposure) is on record?
Its value is “ultrastructural changes of two types were observed”.

And the lysis of cercariae (cercariae of S. mansoni [1]; 240 min after exposure to DEET)?
Its lysis of cercariae is “Frank lysis of cercariae”.

And the “protection against cercarial penetration” value (cercariae of S. mansoni [2]; 5% DEET applied to mouse skin)?
Its value is 72%.

And the “Percent Worm Established, Lungs” value (cercariae of S. mansoni [2]; [5])?
The value was 0.

And the “Percent Worm Established, Skin” value (cercariae of S. mansoni [2]; [5])?
Its value is 0.13 ± 0.01%.

What about the “Percent Worm Established, Total” value (cercariae of S. mansoni [2]; [5]) of the same compound?
The value was 0.13% and 0.13 ± 0.01%.

And the protection against schistosomiasis (cercariae of S. mansoni [2]; infection 30 min after application, skin washed one minute)?
Its protection against schistosomiasis is 100%.

And the protection against schistosomiasis (cercariae of S. mansoni [2]; infection 24 hrs after application)?
The protection against schistosomiasis was “no protection at all”.

And the protection against schistosomiasis (cercariae of S. mansoni [2]; infection four hours after application)?
The protection against schistosomiasis was 85±1%.

What about the protection against schistosomiasis (cercariae of S. mansoni [2]; infection one hour after application) of the same compound?
The protection against schistosomiasis was 98±1%.

What about the “effectiveness in preventing the entry of cercaria into the mouse skin” value (cercariae of S. mansoni [2]; DEET at 10, 20 or 40%) of the same compound?
The value was 100%.

What about the “protective effect after wash-off” value (cercariae of S. mansoni [3]; 10%, five minutes of exposure to water, irrespective of water temperature) of the same compound?
Its value is “significantly (p<0.01) abolished the protective effects of DEET”.

What about the “protective effect after wash-off” value (cercariae of S. mansoni [3]; concentration increased to 20%) of the same compound?
Its value is “slightly improved the retention of protective ability of DEET”.

What about the “amount in the superficial layers of the skin” value ([4]; 11.472 mg on 5 cm^2, by 24 hrs) of the same compound?
The value was “nearly all of the DEET applied to the skin has been cleared from the superficial layers”.

And the “lost from the skin” value ([4]; during 4 to 24 hrs after application)?
The value was 100%.

And the “duration of effect under field condition” value (insects)?
The value was “eight hours”.
